A short description of series [1]: Inhibition of alpha glucosidase (unknown origin) using alpha PNPG as substrate at 0.5 mg/mL preincubated for 15 mins followed by substrate addition measured after 15 mins relative to control. Conditions: Homo sapiens.
The nature of series [2]: Inhibition of alpha glucosidase (unknown origin) using alpha PNPG as substrate at 0.125 mg/mL preincubated for 15 mins followed by substrate addition measured after 15 mins relative to control. As to conditions: Homo sapiens.
Series [3] in a line: Inhibition of alpha glucosidase (unknown origin) using alpha PNPG as substrate at 0.25 mg/mL preincubated for 15 mins followed by substrate addition measured after 15 mins relative to control. Conditions: Homo sapiens.
The nature of series [4]: Inhibition of alpha glucosidase (unknown origin) using alpha PNPG as substrate preincubated for 15 mins followed by substrate addition measured after 15 mins. Details: species or system Homo sapiens. As to conditions: for inhibition: Homo sapiens.
Series [5] in a line: Inhibition of alpha glucosidase (unknown origin) using alpha PNPG as substrate at 0.0625 mg/mL preincubated for 15 mins followed by substrate addition measured after 15 mins relative to control. Conditions: Homo sapiens.
Series [6] in a line: Solubility of the compound. It is filed as physicochemical.
The species entered for series [7] is Homo sapiens. Put plainly: Irreversible inhibition of alpha glucosidase (unknown origin) using alpha PNPG as substrate at 0.005 mg/mL.
The species named for series [8] is Homo sapiens. Kind of series: Potency index, ratio of acarbose IC50 to compound IC50 for alpha glucosidase (unknown origin).
For series [9], the species on record is Homo sapiens. Kind of series: Inhibition of alpha glucosidase (unknown origin) using alpha PNPG as substrate at 9.77 10^-4mg/ml preincubated for 15 mins followed by substrate addition measured after 15 mins relative to control.
The species entered for series [10] is Homo sapiens. Put plainly: Inhibition of alpha glucosidase (unknown origin) using alpha PNPG as substrate at 4.88 10^-4mg/ml preincubated for 15 mins followed by substrate addition measured after 15 mins relative to control.
Series [11] is filed under the species Homo sapiens. Kind of series: Inhibition of alpha glucosidase (unknown origin) using alpha PNPG as substrate at 5 mg/mL preincubated for 15 mins followed by substrate addition measured after 15 mins relative to control.
Series [12] is filed under the species Homo sapiens. Kind of series: Inhibition of alpha glucosidase (unknown origin) using alpha PNPG as substrate at 0.00391 mg/mL preincubated for 15 mins followed by substrate addition measured after 15 mins relative to control.
Series [13] is filed under the species Homo sapiens. Put plainly: Inhibition of alpha glucosidase (unknown origin) using alpha PNPG as substrate at 2.5 mg/mL preincubated for 15 mins followed by substrate addition measured after 15 mins relative to control.
Series [14] is filed under the species Homo sapiens. Put plainly: Inhibition of alpha glucosidase (unknown origin) using alpha PNPG as substrate at 1.25 mg/mL preincubated for 15 mins followed by substrate addition measured after 15 mins relative to control.
The species entered for series [15] is Homo sapiens. Kind of series: Inhibition of alpha glucosidase (unknown origin) using alpha PNPG as substrate at 0.00195 mg/mL preincubated for 15 mins followed by substrate addition measured after 15 mins relative to control.
For series [16], the species on record is Homo sapiens. Kind of series: Inhibition of alpha glucosidase (unknown origin) using alpha PNPG as substrate at 10 mg/mL preincubated for 15 mins followed by substrate addition measured after 15 mins relative to control.
The species entered for series [17] is Homo sapiens. Put plainly: Inhibition of alpha glucosidase (unknown origin) using alpha PNPG as substrate at 0.01563 mg/mL preincubated for 15 mins followed by substrate addition measured after 15 mins relative to control.
Series [18] is filed under the species Homo sapiens. Put plainly: Reversible inhibition of alpha glucosidase (unknown origin) using alpha PNPG as substrate at 0.01 mg/mL.
Series [19] is filed under the species Homo sapiens. Put plainly: Inhibition of alpha glucosidase (unknown origin) using alpha PNPG as substrate at 0.00781 mg/mL preincubated for 15 mins followed by substrate addition measured after 15 mins relative to control.
Series [20] is filed under the species Homo sapiens. Put plainly: Non-competitive inhibition of alpha glucosidase (unknown origin) using varying levels of alpha PNPG substrate at 0.01 mg/mL by Lineweaver-Burk plot analysis.
The species named for series [21] is Homo sapiens. Kind of series: Inhibition of alpha glucosidase (unknown origin) using alpha PNPG as substrate at 0.03125 mg/mL preincubated for 15 mins followed by substrate addition measured after 15 mins relative to control.

The values below come from ChEMBL document CHEMBL4014296, “Constituents with potent α-glucosidase inhibitory activity from Pueraria lobata (Willd.) ohwi” (Bioorg Med Chem Lett, 2017).

Each structure is given as a SMILES string. pIC50: −log10 of the molar value. Activity calls are given as the source filed them. No cut-off for these calls is given here.

Regarding `CC1(C)C=Cc2cc3c(cc2O1)O[C@@H]1c2ccc(O)cc2OC[C@@]31O`, the inhibition – broadly, how much of the control response was suppressed – was 86% in series [1]; 49.9% in series [2]; 60.1% in [3]; “Dose-dependent effect” in series [4]; 42.5% in series [5]. The pIC50 – broadly, the negative decadic logarithm of the IC50, by convention in mol/L – in series [4] was 3.42 to 3.74.
For `COc1ccc2c(=O)cc(C(O)Cc3ccc(O)cc3)oc2c1` (stereo not drawn), the solubility entry in [6] is given as “Insoluble”.
For the compound `CC(C)=CCC/C(C)=C/Cc1cc2c3c(oc2cc1O)C(O)(O)c1ccc(O)cc1O3`, in series [4], the negative logarithm of the IC50 (pIC50) is 5.75 and the inhibition result is “Dose-dependent effect”. The inhibition entry in the series filed under Homo sapiens [7] is “Active”. In addition, the Ratio IC50 in the series listed under Homo sapiens [8] was 1120.
For `C[C@H]1O[C@H](O[C@H]2[C@H](O)[C@@H](O)[C@@H](O[C@H]3[C@H](O)[C@@H](O)C(O)O[C@@H]3CO)O[C@@H]2CO)[C@H](O)[C@@H](O)[C@@H]1N[C@H]1C=C(CO)[C@@H](O)[C@H](O)[C@H]1O` (stereo partly drawn) [ACARBOSE], the inhibition in the series listed under Homo sapiens [9] came to 79.7%; in the series listed under Homo sapiens [10], 17.7%; in the series filed under Homo sapiens [11], 58.4%; in the series filed under Homo sapiens [12], 89.5%; in the series filed under Homo sapiens [13], 51.1%; in the series listed under Homo sapiens [14], 42.2%. For the same compound, the inhibition in the series filed under Homo sapiens [15] is 85.6%; in series [4], “Dose-dependent effect”; in the series filed under Homo sapiens [16] it was 82.2%. In [4], this compound showed a negative-log IC50 (pIC50) of 2.70.
In the case of `O=c1c(-c2ccc(O)cc2)coc2cc(O)ccc12` [DAIDZEIN], the inhibition in the series listed under Homo sapiens [17] was 59%; in the series filed under Homo sapiens [19] it was 57.1%; in the series filed under Homo sapiens [12], 34.3%; in [4], “Dose-dependent effect”; in the series filed under Homo sapiens [21] it was 72.8%. The inhibition result in the series listed under Homo sapiens [18] and in the series filed under Homo sapiens [20] was “Active” in each case. Also, the negative logarithm of the IC50 (pIC50) in [4] is 4.64. Also, the Ratio IC50 in the series filed under Homo sapiens [8] was determined as 87.
As for `O=c1c(-c2ccc(O)cc2)coc2cc(O[C@@H]3O[C@H](CO)[C@@H](O)[C@H](O)[C@H]3O)ccc12` [DAIDZIN], the inhibition in series [1] is 84.8%; in series [2] it was 66.8%; in series [3], 77.3%; in series [4], “Dose-dependent effect”; in [5], 41.2%. In series [4], this compound had a negative logarithm of the IC50 (pIC50) of 3.60 to 3.75.
Regarding `COc1ccc(-c2coc3cc(O[C@@H]4O[C@H](CO)[C@@H](O)[C@H](O)[C@H]4O)ccc3c2=O)cc1` [ONONIN], the inhibition in series [1] was 74.9%; in series [2], 31.6%; in series [3], 56.3%; in series [4] it was “Dose-dependent effect”; in series [5], 29.4%. This compound also had a pIC50 in series [4] of 3.37.
For the compound `O=c1c(-c2ccc(O)cc2)coc2c([C@@H]3O[C@H](CO)[C@@H](O)[C@H](O)[C@H]3O)c(O)ccc12` [PUERARIN], the inhibition in series [1] was 78.3%; in series [2], 21.9%; in series [3], 41.5%; in [4], “Dose-dependent effect”; in series [5], 5.26%. Also, in series [4], the negative logarithm of the IC50 (pIC50) was 3.28.
